Laboratory results taken from patent US20090143361A1, “Pyrido[3,2-E]Pyrazines, Process For Preparing The Same, And Their Use As Inhibitors Of Phosphodiesterase 10” (ELBION GMBH, priority 2007, published 2009).

Biological target: PDE10 from pig striatum (Sus scrofa, UniProt A0A287B941)
Assay: Inhibition of PDE10 from pig striatum ([3H]-cAMP SPA)
Assay type: biochemical
Settings: Table 7; read-out: PDE10 pig IC50
Procedure: Phosphodiesterase isoenzyme 10 (PDE10) activity was determined in preparations of human recombinant PDE10A and PDE10 from pig striatum, respectively.
Striatum from male hybrid pigs (150 kg) were collected and frozen at −70° C.
At the day of preparation 0.5 g striatum was homogenised in 10 ml 50 mM Tris/Mg-buffer at 4° C. and centrifuged for one hour at 100000 g. The supernatant was removed and the pellet was resuspended in the same buffer, but containing 1% Triton and incubated for 45 min at 4° C. The membrane fraction was applied onto a 5 ml Hi Trap™ QHP column at the Akta-FPLC. After washing the column the bound PDE protein was eluted with an increasing sodium chloride gradient (O mM-500 mM sodium chloride) in 50 mM Tris/Mg-buffer at 4° C. in the presence of 1% Triton. […] The fractions with PDE10-activity were pooled and frozen in aliquots until use at −20° C.
(§1) PDE10 activity was determined in a one step procedure in microtiterplates. […] Nonspecific activity was tested without the enzyme. The reaction was initiated by addition of the substrate solution and was carried out at 37° C. for 30 minutes. Enzymatic activity was stopped by addition of 25 μl YSi-SPA-beads (Amersham-Pharmacia). One hour later the mixture was measured in a liquid scintillation counter for microtiterplates (Microbeta Trilux). To pipette the incubation mixture a robot Biomek (Fa. Beckman) is used. […] For determination of IC50 values the Hill-plot, 2-parameter-model, was used.
The phosphodiesterase isoenzyme 10 (PDE10) activity was determined in preparations of rat, pig and guinea pig striatum respectively. Striatum from male Wistar rats (180-200 g), male hybrid pigs (150 kg) and male guinea pigs (CRL (HA), 500 g) respectively were collected and frozen at −70° C.
At the day of preparation 0.5 g striatum was homogenized in 10 ml 50 mM Tris/Mg-buffer at 4° C. and centrifuged for one hour at 100000 g. The supernatant is called the cytosolic fraction and was removed and stored on ice. The pellet was resuspended in the same buffer, but containing 1% Triton and incubated for 45 min at 4° C. Both fractions were independently applied onto a 5 ml Hi Trap™ QHP column at the Akta-FPLC. After washing the columns the bound PDE protein was eluted with an increasing sodium chloride gradient (0 mM-500 mM sodium chloride) in 50 mM Tris/Mg-buffer at 4° C. for the cytosolic fraction and in the presence of 1% Triton for the membrane fraction. […] The fractions with PDE10-activity were pooled and frozen in aliquots until use at −20° C.
as §1, with “YSi-SPA beads” for “YSi-SPA-beads”

Structure (SMILES)	IC50 [nM]
COc1ccc2nc(C)c3c(C)nc(-c4cc(F)ccc4Cl)n3c2n1 [Example 22, 9-(2-Chloro-5-fluorophenyl)-2-methoxy-6,7-dimethylimidazo[1,5-a]pyrido[3,2-e]pyrazine]	< 10
COc1ccc2nc(C)c3c(C)nc(-c4ccc(Cl)c(Cl)c4)n3c2n1 [Example 7, 9-(3,4-Dichlorophenyl)-2-methoxy-6,7-dimethylimidazo[1,5-a]pyrido[3,2-e]pyrazine]	10 to 100
CCCc1nc(C)c2c(Cl)nc3ccc(OCC)nc3n12 [Example 2, 6-Chloro-2-ethoxy-7-methyl-9-propylimidazo[1,5-a]pyrido[3,2-e]pyrazine]	< 10
COc1ccc2nc(C)c3c(C)nc(-c4cc(Cl)cc(Cl)c4)n3c2n1 [Example 6, 9-(3,5-Dichlorophenyl)-2-methoxy-6,7-dimethylimidazo[1,5-a]pyrido[3,2-e]pyrazine]	10 to 100
COc1ccc2nc(C)c3c(C)nc(-c4cccnc4)n3c2n1 [Example 10, 2-Methoxy-6,7-dimethyl-9-pyridin-3-ylimidazo[1,5-a]pyrido[3,2-e]pyrazine]	10 to 100
COc1ccc2nc(C)c3c(C)nc(-c4cnccc4OC)n3c2n1 [Example 30, 2-Methoxy-9-(4-methoxypyridin-3-yl)-6,7-dimethylimidazo[1,5-a]pyrido[3,2-e]pyrazine]	10 to 100
CCCc1nc(C)c2c(C)nc3ccc(OCC)nc3n12 [Example 3, 2-Ethoxy-6,7-dimethyl-9-propylimidazo[1,5-a]pyrido[3,2-e]pyrazine]	10 to 100
COc1ccc2nc(C)c3c(C)nc(-c4ccc(C)cc4Cl)n3c2n1 [Example 12, 9-(2-Chloro-4-methylphenyl)-2-methoxy-6,7-dimethylimidazo[1,5-a]pyrido[3,2-e]pyrazine]	< 10
CCOc1ccc2nc(C)c3c(C)nc(-c4ccccc4Cl)n3c2n1 [Example 4, 9-(2-Chlorophenyl)-2-ethoxy-6,7-dimethylimidazo[1,5-a]pyrido[3,2-e]pyrazine]	< 10

Same assay, conditions: Table 8; read-out: PDE10 pig IC50

Structure (SMILES)	IC50 [nM]
COc1ccc2nc(C)c3c(C)nc(-c4cc(C)ccc4Cl)n3c2n1 [Example 78, 9-(2-Chloro-5-methylphenyl)-2-methoxy-6,7-dimethylimidazo[1,5-a]pyrido[3,2-e]pyrazine]	< 10
COc1ccc2nc(C)c3c(C)nc(-c4ccc(Cl)s4)n3c2n1 [Example 92, 9-(5-Chloro-2-thienyl)-2-methoxy-6,7-dimethylimidazo[1,5-a]pyrido[3,2-e]pyrazine]	10 to 100
COc1ccc2nc(C)c3c(C)nc(-c4ccccc4-c4ccccc4)n3c2n1 [Example 70, 9-Biphenyl-2-yl-2-methoxy-6,7-dimethylimidazo[1,5-a]pyrido[3,2-e]pyrazine]	10 to 100
COc1ccc2nc(C)c3c(C)nc(-c4ccc(F)cc4C)n3c2n1 [Example 82, 9-(4-Fluoro-2-methylphenyl)-2-methoxy-6,7-dimethylmidazo[1,5-a]pyrido[3,2-e]pyrazine]	< 10
COc1ccc2nc(C)c3c(C)nc(C#Cc4ccccc4Cl)n3c2n1 [Example 96, 9-[(2-Chlorophenyl)ethynyl]-2-methoxy-6,7-dimethylimidazo[1,5-a]pyrido[3,2-e]pyrazine]	10 to 100
COc1ccc2nc(C)c3c(C)nc(-c4ccco4)n3c2n1 [Example 60, 9-(2-Furyl)-2-methoxy-6,7-dimethylimidazo[1,5-a]pyrido[3,2-e]pyrazine]	10 to 100
COc1ccc2nc(C)c3c(C)nc(-c4ccccc4OC)n3c2n1 [Example 52, 2-Methoxy-9-(2-methoxyphenyl)-6,7-dimethylimidazo[1,5-a]pyrido[3,2-e]pyrazine]	10 to 100
COc1ccc2nc(C)c3c(C)nc(-c4cccc(C#N)c4)n3c2n1 [Example 73, 3-(2-Methoxy-6,7-dimethylimidazo[1,5-a]pyrido[3,2-e]pyrazin-9-yl)benzonitrile]	10 to 100
COc1ccc2nc(C)c3c(C)nc(-c4ccc(Cl)cc4C)n3c2n1 [Example 80, 9-(4-Chloro-2-methylphenyl)-2-methoxy-6,7-dimethylimidazo[1,5-a]pyrido[3,2-e]pyrazine]	< 10
COc1ccc(-c2nc(C)c3c(C)nc4ccc(OC)nc4n23)cc1 [Example 55, 2-Methoxy-9-(4-methoxyphenyl)-6,7-dimethylimidazo[1,5-a]pyrido[3,2-e]pyrazine]	10 to 100
COc1ccc2nc(C)c3c(C)nc(-c4cccc(Cl)c4Cl)n3c2n1 [Example 89, 9-(2,3-dichlorophenyl)-2-methoxy-6,7-dimethylimidazo[1,5-a]pyrido[3,2-e]pyrazine]	< 10
COc1ccc2nc(C)c3c(C)nc(-c4cccc(Cl)c4C)n3c2n1 [Example 87, 9-(3-Chloro-2-methylphenyl)-2-methoxy-6,7-dimethylimidazo[1,5-a]pyrido[3,2-e]pyrazine]	< 10
COc1ccc2nc(C)c3c(C)nc(-c4cccc(C(=O)NC(C)C)c4)n3c2n1 [Example 103, N-Isopropyl-3-(2-methoxy-6,7-dimethylimidazo[1,5-a]pyrido[3,2-e]pyrazin-9-yl)benzamide]	10 to 100
COc1ccc2nc(C)c3c(C)nc(-c4cccc(C(=O)N(C)C)c4)n3c2n1 [Example 104, 3-(2-Methoxy-6,7-dimethylimidazo[1,5-a]pyrido[3,2-e]pyrazin-9-yl)-N,N-dimethylbenzamide]	> 100
COc1ccc2nc(C)c3c(C)nc(-c4ccc(C)cc4)n3c2n1 [Example 59, 2-Methoxy-6,7-dimethyl-9-(4-methylphenyl)imidazo[1,5-a]pyrido[3,2-e]pyrazine]	10 to 100
COc1ccc2nc(C)c3c(C)nc(-c4cccc(C)c4)n3c2n1 [Example 65, 2-Methoxy-6,7-dimethyl-9-(3-methylphenyl)imidazo[1,5-a]pyrido[3,2-e]pyrazine]	< 10
COc1ccc2nc(C)c3c(C)nc(-c4ccc(F)cc4OC)n3c2n1 [Example 86, 9-(4-Fluoro-2-methoxyphenyl)-2-methoxy-6,7-dimethylmidazo[1,5-a]pyrido[3,2-e]pyrazine]	10 to 100
COc1ccc2nc(C)c3c(C)nc(-c4cc(F)ccc4C)n3c2n1 [Example 81, 9-(5-Fluoro-2-methylphenyl)-2-methoxy-6,7-dimethylmidazo[1,5-a]pyrido[3,2-e]pyrazine]	< 10
COc1ccc2nc(N3CCC3)c3c(C)nc(CCC(F)(F)F)n3c2n1 [Example 43, 6-Azetidin-1-yl-2-methoxy-7-methyl-9-(3,3,3-trifluoropropyl)imidazo[1,5-a]pyrido[3,2-e]pyrazine]	> 100
COc1ccc2nc(N)c3c(C)nc(CCC(F)(F)F)n3c2n1 [Example 44, 2-Methoxy-7-methyl-9-(3,3,3-trifluoropropyl)imidazo[1,5-a]pyrido[3,2-e]pyrazin-6-amine]	10 to 100
COc1ccc2nc(C)c3c(C)nc(-c4ccc(C(F)(F)F)cc4)n3c2n1 [Example 67, 2-Methoxy-6,7-dimethyl-9-[4-(trifluoromethyl)phenyl]imidazo[1,5-a]pyrido[3,2-e]pyrazine]	10 to 100
COc1ccc2nc(C)c3c(C)nc(-c4cc(Cl)ccc4OC)n3c2n1 [Example 84, 9-(5-Chloro-2-methoxyphenyl)-2-methoxy-6,7-dimethylimidazo[1,5-a]pyrido[3,2-e]pyrazine]	10 to 100
COc1ccc2nc(C)c3c(C)nc(C#CC4CCCCC4)n3c2n1 [Example 95, 9-(Cyclohexylethynyl)-2-methoxy-6,7-dimethylimidazo[1,5-a]pyrido[3,2-e]pyrazine]	> 100
COc1ccc2nc(C)c3c(C)nc(-c4cc(C(N)=O)ccc4F)n3c2n1 [Example 106, 4-Fluoro-3-(2-methoxy-6,7-dimethylimidazo[1,5-a]pyrido[3,2-e]pyrazin-9-yl)benzamide]	< 10

Same assay, conditions: Table 9, cells marked pPDE10; read-out: IC50 (nM) (pPDE10)

Structure (SMILES)	IC50 [nM]
COc1ccc2nc(C#N)c3c(C)nc(-c4ccc(Cl)cc4Cl)n3c2n1 [Example 112, 9-(2,4-dichlorophenyl)-2-methoxy-7-methylimidazo[1,5-a]pyrido[3,2-e]pyrazine-6-carbonitrile]	< 10
